Assays:
[1] = nasal gel, carbopol in PEG 400, rats; cited from earlier work
[2] = Intranasal versus intravenous pharmacokinetics in New Zealand White rabbits; settings: 5 mg/mL in mPEG 350, 50 μL into each nasal cavity
Procedure: In this Example, 10 mg lorazepam is dissolved in 2 mL of mPEG 350 using ultrasound to obtain a solution containing 5 mg/mL of lorazepam. 50 μL of the resulting composition is administered into each nasal cavity of male New Zealand White rabbits held in a supine position during, and then one minute after application. An Eppendorf pipette is used for each application. After administration, blood samples then are harvested from a marginal ear vein at 0, 2, 5, 10, 15, 30 and 60 minutes, and the lorazepam concentration determined by high performance liquid chromatography (HPLC). The pharmacokinetics of lorazepam delivery via intranasal administration can then be compared with the pharmacokinetics of lorazepam delivery by intravenous administration.
In this Example, 10 mg of midazolam is dissolved in 2 mL of mPEG 350 using ultrasound to obtain a solution containing 5 mg/mL midazolam. 50 μL of the resulting composition is then administered into each nasal cavity of male New Zealand White rabbits, held in a supine position during, and then one minute after application. After administration, blood samples then are harvested from a marginal ear vein at 0, 2, 5, 10, 15, 30 and 60 minutes, and the midazolam concentration determined by HPLC. […]

[3] = Viscosity of formulation components; type: physicochemical; settings: neat component as listed in formulation tables
[4] = after nasal administration, adults; cited from earlier work

Structure (SMILES) | Pharmacokinetics of intranasal versus intravenous administration [2] | Viscosity (cP) of component [3] [cP] | other results
COC(=O)C1=C(C)NC(C)=C(C(=O)OC)C1c1ccccc1[N+](=O)[O-] [nifedipine] |  |  | Time to peak plasma concentration [1]: 30 min
Cc1ncc2n1-c1ccc(Cl)cc1C(c1ccccc1F)=NC2 [midazolam] | comparable to those of the intravenously administered midazolam |  | 
CC(O)CO (stereo not drawn) [Propylene glycol] |  | 40 | 
O=C1Nc2ccc(Cl)cc2C(c2ccccc2Cl)=NC1O (stereo not drawn) [lorazepam] | comparable to those of the intravenously administered lorazepam |  | Time to peak concentration [4]: 2.3 h
O [Water] |  | 1 | 
